{
  "source": "patent US20230338363A1",
  "about": "“COMBINATION CHEMO-IMMUNOTHERAPY FOR PANCREATIC CANCER USING THE IMMUNOGENIC EFFECTS OF AN IRINOTECAN SILICASOME NANOCARRIER PLUS ANTI-PD-1” (The Regents of the University of California, priority 2020, published 2023)",
  "key": {"PDAC": {"system": "PDAC", "details": "resected PDAC patients; p < 0.01; cited from earlier work"}, "KPC cells [1]": {"system": "KPC cells", "test": "Autophagy (LC3B, p62) and PD-L1 expression by IF staining and immunoblotting", "format": "cell-based, mouse", "details": "IRIN 300 µM or OX 500 µM, 24 h", "procedure": "KPC cells were seeded in the µ-Slide 8 well. After cell attachment, the cells were treated by IRIN at 300 µM for 24 h. Control treatments included exposure to PBS, chloroquine (32 µM), rapamycin (100 nM) and IFN-γ (10 ng/ml). Before IF staining, the cells were washed with PBS and fixed with 4% paraformaldehyde at RT for 15 minutes. Cells were treated in 1% BSA (blocking reagent) plus 0.2% triton-X100 in PBS for 30 minutes. Subsequently, the cells were incubated with primary antibody that recognizes LC3B (Cell Signaling #2775, 1:200) or p62/SQSTM1 (Cell Signaling #23214, 1:800) in 1% BSA containing PBS solution at 4° C. overnight. The sample was washed twice in PBS and further stained using an Alexa Fluor® 488 conjugated goat anti-rabbit secondary antibody (Thermo Fisher, A-11008, 1:1000) and 5 µg/mL Hoechst 33342 dye for 1 h. Cell surface staining for PD-L1 assessment was carried out in fixed (4% paraformaldehyde) cells, using a staining process similar to the above protocol. Primary PD-L1 antibody (Abcam, ab213480, 1: 500) and Alexa Fluor® 594 conjugated goat anti-rabbit secondary antibody (Thermo Fisher, A-11012, 1:1000) were used. The cells were visualized using a Leica SP8-MD confocal microscope under the 100x objective lens.\nTo confirm the confocal staining results for LC3B, p62 and PD-L1, western blotting experiments were performed in KPC cells exposed to IRIN (300 µM) or OX (500 µM) for 24 hr. Another experiment also looked at the dose-dependent effect of IRIN at concentrations of 75, 150, 300 and 600 µM for 24 h. Briefly, ~2×10^5 KPC cells per well were seeded in 6 well-plates. After drug exposure, KPC cells were harvested and treated with cold RIPA lysis buffer (Cell Signaling # 9806S), supplemented with a cocktail of protease and phosphatase inhibitors (Cell Signaling #5872) and incubated on ice for 30 mins. After centrifugation of the lysates at 12,000 rpm for 10 min, protein concentration was quantified by a Bradford assay (Biorad). Equal amounts of protein in the supernatants were loaded onto a 10-20% Tris-glycine SDS-PAGE gel (Invitrogen, Grand Island, NY). The proteins were subsequently transferred to a PVDF membrane. The membrane was blocked with 5% non-fat dry milk/TBST, before incubation with primary and HRP-conjugated secondary antibodies. The primary antibodies included: LC3B (Cell Signaling #2775), p62/SQSTM1 (Cell Signaling #5114), NF-κB p65 (Cell Signaling #8242), Phospho-NF-xB p65 (Cell Signaling #3033) and PD-L1 (Abcam, ab213480). The blots were developed by soaking in ECL substrate (Thermo Fisher Scientific). Densitometric analysis of each protein band on the film was quantified by ImageJ software and normalized to the intensity of a corresponding housekeeping protein.\n(§1) The of the IRIN silicasome on lysosomal alkalization was performed at drug concentrations of 75 µM and 300 µM in KPC cells. Empty silicasomes (in which a 500 µg/mL particle dose is representative of an encapsulated IRIN dose of 300 µM) was included as control. The assessment of LC3B, p62 and PD-L1 immunoblotting and IF staining were performed in KPC cells during treatment with the IRIN silicasome or empty silicasomes, as described for the free drug."}, "KPC tumor": {"system": "KPC tumor", "test": "Vaccination experiment with dying chemo-treated KPC cells", "format": "in vivo, mouse", "procedure": "The vaccination schedule is highlighted in FIG. 2, panel C. Eight million KPC cells were seeded in a tissue culture dish. After cellular attachment, IRIN (300 µM or OX (500 µM were added for 24 h. Cells were collected and washed before resuspended in 0.8 mL cold PBS. For vaccination, each mouse received subcutaneous (SC) injection of a 100 µL suspension of chemo-treated cells in the right flank. Control animals received SC injection with 0.1 mL PBS. The vaccination was repeated after 7 days. Fourteen days after the 1st injection, the animals received SC injection of normal KPC cells (1 million cells in 0.1 mL PBS) in the contralateral (left) flank. Tumor growth was measured by a digital caliper every 2-3 days, and the tumor volume calculated according to the formula: length × width^2 /2. Animals were sacrificed on day 26 and the tumors were collected, weighed and fixed in 10% formalin, followed by paraffin embedding and sectioning to derive to 4 µm thick slices for IHC analysis. Primary antibodies to CD8 (#14-0808-82) and FoxP3 (#13-5773-82) were purchased from ThermoFisher. IHC staining was performed in the UCLA Translational Pathology Core Laboratory (TPCL). The slides were scanned and images assessed by using Aperio ImageScope software (Leica)."}, "KPC cells [2]": {"system": "KPC cells", "test": "Lysosomal alkalization, LysoTracker Red DND 99 confocal microscopy", "format": "cell-based, mouse", "details": "CQ 32 µM, 24 h", "procedure": "Approximately 1.5×10^4 KPC cells were seeded in µ-Slide 8 well (ibidi, 80826). To reveal the intracellular distribution of IRIN, attached KPC cells were treated with IRIN (300 µM) for 24 h. Cell membranes were stained using an Alexa Fluor® 594 conjugated WGA dye (Invitrogen™, W11262) at 2 µg/mL for 10 minutes. After washing, the cells were visualized using a Leica SP8-MD confocal microscope under the 100× objective lens. The excitation and emission wavelengths for IRIN were 405 nm and 440~490 nm, respectively^[51]\nIRIN-treated KPC cells were washed and replenished with fresh media containing 100 nM DND-99 dye and 5 µg/mL Hoechst 33342 for nuclear staining. The cells were incubated at 37° C. for 0.5 h, followed by washing with phenol red free media. The cells were then visualized using a Leica SP8-MD confocal microscope under the 100× objective lens.\nas §1"}},
  "data": [
    {"compound": "Nc1ccn([C@@H]2O[C@H](CO)[C@@H](O)C2(F)F)c(=O)n1", "note": "[GEM, gemcitabine]", "values": [
      {"measurement": "median overall survival", "setting": "PDAC", "value": 35.0, "unit": "months"}
    ]},
    {"compound": "O=C1[O][Pt]2([NH][C@@H]3CCCC[C@H]3[NH]2)[O]C1=O", "note": "[oxaliplatin]", "values": [
      {"measurement": "PD-L1 expression", "setting": "KPC cells [1]", "value": "failed to upregulate PD-L1 expression"},
      {"measurement": "autophagy flux (Western blotting of LC3 and p62)", "setting": "KPC cells [1]", "value": "induced autophagy"},
      {"measurement": "growth of tumor on the opposite flank vs PBS control", "setting": "KPC tumor; KPC cells treated with 300 µM IRIN or 500 µM OX, p <0.05", "value": "improved the shrinkage of the tumor on the opposite flank significantly"},
      {"measurement": "CD8+ staining number (IHC)", "setting": "KPC tumor; harvested tumors, day 26", "value": "slight increase"},
      {"measurement": "CD8+/Treg cells ratio (IHC)", "setting": "KPC tumor; harvested tumors, day 26", "value": "significantly (p <0.01) increased"}
    ]},
    {"compound": "chloroquine diphosphate salt", "values": [
      {"measurement": "alkalizing effect on lysosomal pH", "setting": "KPC cells [2]", "value": "alkalizing effect of IRIN was duplicated"}
    ]}
  ]
}
